Laboratory results reported in patent US8017350B2, “Glimepiride- and insulin-induced glycosylphosphatidylinositol-specific phospholipase C regulation” (Sanofi-Aventis Deutschland GmbH, priority 2004, dated 2011).

Legend:
isolated rat adipocytes = experiment: glucose transport assay (2-deoxy-D-[3H]glucose); format: cell-based; conditions: 50 μM
Procedure: Glucose transport was determined as described in “Müller, G. et al., (1994) J. Cell Biol. 126: 1267-1276” by incubation of 10,000-20,000 washed adipocytes with 2-deoxy-D[2,6-^3H]glucose at 50 μM final conc. (0.33 μCi/ml) in 50-μl portions for 20 min at 37° C. in the absence or presence of 20 μM cytochalasin B.
Table 3: Isolated rat adipocytes were incubated in the presence of methyl-β-cyclodextrin (m-β-CD, 10 mM, 50 min), CBDP (300 μM, electroporation, followed by washing and subsequent incubation for 30 min), PIG41 (10 μM, 15 min), sodium orthovanadate (1 mM, 15 min), trypsin (10 μg/ml, 15 min followed by treatment with 0.5 M NaCl and subsequent washing) and N-ethylmaleimide (1 mM, 5 min followed by addition of DTT). After addition of GPI-2350 (50 μM final conc.) to one half of the adipocyte suspension and further incubation (60 min, 37° C.), portions of the cells were assayed for 5′-Nuc activity in the isolated IcDIGs. The increase in 5′-Nuc during the basal incubation was set at 100 arb. units. Other portions of the cells (after 15 min incubation) were assayed for glucose transport which was set at 100 arb. units for the basal incubation. Means+SD of at least 3 independent cell incubations with activity measurements in triplicate each are given.
FIG. 8: Effect of GPI-2350 on the glimepiride/insulin-induced metabolic activity. Isolated rat adipocytes were treated (5 min, 37° C.) without or with GPI-2350 (Panel A, 50 μM; Panel B, increasing conc.; Panel C, 5 μM, 50 μM) and then incubated (15 min, 37° C.) in the absence or presence of insulin (Ins, 10 nM) or glimepiride (Gli, 20 μM or increasing conc.) as indicated. The adipocytes were then assayed for glucose transport and isoproterenol-induced lipolysis. The activity is given relative to the absence of GPI-2350 in the control reaction (Panels A, basal) or in the insulin- and glimepiride-stimulated state (Panels B and C, set at 100). Means+SD of at least 5 independent cell incubations with activity measurements in triplicate each are given.

[1] = test system: GPI-PLC, rat adipocyte plasma membrane/DIGs; experiment: Inhibition of adipocyte GPI-PLC (plasma membranes, lcDIGs or hcDIGs), substrate AChE; format: biochemical
[2] = test system: lipolysis, rat adipocytes; experiment: Isoproterenol-induced lipolysis in rat adipocytes; format: cell-based; conditions: GPI-2350 50 μM
Procedure: Electroporation was performed as described in “Müller, G. et al., (2000) Mol. Cell. Biol. 20: 4708-4723”. Lipolysis was determined as release of glycerol or fluorescent NBD-FA from prelabeled and isoproterenol-stimulated adipocytes as described in “Müller, G. et al., (2003) Biochimie 85: 1245-1256”. Gce1 was detected by photolabeling of solubilized plasma membranes or hc/lcDIGs (10-50 μg protein) with 8-N3—[^32P]cAMP and subsequent phosphorimaging as described in “Müller, G. et al., (1994) Biochemistry 33: 12149-12159”. 5′-Nuc, aP and AChE activities were measured according to “Eliakim, R. et al., (1990) Biochim. Biophys. Acta 1355: 293-302”. Protein was determined using the BCA protein determination kit from Pierce (Rockford, Ill.) and BSA as calibration standard. SDS-PAGE was performed using precast gels (Novex, San Diego, Calif.; 10% Bis-Tris resolving gel, morpholinopropanesulfonic acid-SDS running buffer). Lumiimages were evaluated on a LumiImager using LumiImager software (Roche Diagnostics). Phosphor- and fluorescence images were processed and quantified using the Storm 860 PhosphorImager system (Molecular Dynamics, Gelsenkirchen, Germany). Figures were constructed using the ADOBE PHOTOSHOP software (Adobe Systems, Mountain View, Calif.). […]

Stability of compound 3 = format: physicochemical; conditions: 4° C.
Procedure: As starting material, racemic 1,4,5,6-tetra-O-benzyl-myo-inositol (hereinafter: compound 1) was prepared by a procedure as disclosed in “Zhai, H.-X. et al. (1995) Tetrahedron Lett. 36: 7403-7406”. Compound 1 was then phosphorylated with dodecylphosphonic dichloride in the presence of triethylamine and dimethyl-aminopyridine to yield tetra-O-benzyl-myo-inositol-1,2-cyclo-dodecylphosphonic acid (hereinafter: compound 2). By catalytic hydrogenation with 10% Pd on charcoal, compound 2 was debenzylated to myo-inositol-1,2-cyclo-dodecylphosphonic acid (hereinafter: compound 3 or GPI-2350) as a mixture of diastereomers. For synthesis of compound 2 (FIG. 1), 1 g (1.8 mmol) of compound 1 was dissolved in 60 ml of methylene chloride and 1 ml of triethylamine; 200 mg dimethyl-aminopyridine and 1 g ([…]) of dodecylphosphonic dichloride were added. This reaction solution was allowed to stand (45 min, room temperature). Then 50 ml of ethyl acetate were added and the mixture was filtered on silica gel. After concentration of the solvent, the residue was purified by flash chromatography (n-heptane/ethyl acetate, 1/1, by vol.). Yield of compound 2: 580 mg (43%) of a white amorphous solid. TLC: n-heptane/ethyl acetate (1/1, by vol.), Rf=0.7. MS: (M+Li)^+=761.4, calculated […], M=754.9. […] MS: (M+Li)^+=401.2, calculated C18H35O7P, M=394.4.

SMILES: CCCCCCCCCCCCP1(=O)O[C@@H]2[C@H](O)[C@@H](O)[C@H](O)[C@@H](O)[C@@H]2O1 (stereo partly shown) [GPI-2350, myo-inositol-1,2-cyclo-dodecylphosphonic acid]
- effect on stimulation of glucose transport in response to glimepiride (isolated rat adipocytes): almost complete blockade
- inhibition in words [1]: potent inhibitor
- glimepiride inhibition of lipolysis with GPI-2350 [2]: to lower than control values
- stability as dried amorphous solid (Stability of compound 3): as dried amorphous solid for years at 4 °C
